# Data: patent publication US5336485A, “Method for protecting animals against tacrine induced cytotoxic injury using sterol compounds” (priority 1993, dated 1994)
# Counter-ions that a name gives are not always drawn.
# How the values were obtained:
# rat hepatocytes [1] = assay: EMS-induced lipid peroxidation in rat hepatocyte suspensions; type: cell-based; conditions: 50 mM EMS
# rat hepatocytes [2] = assay: Cellular alpha-tocopherol and tocopherol ester content of rat hepatocytes; conditions: for Hepatocyte Concentration Alpha-T / Hepatocyte Concentration Alpha-TS: EMS 3 h
# Description: At each time-point, rapid separation of viable from non-viable hepatocytes and medium was accomplished by the dibutyl phthalate centrifugation method. Cell viability was monitored hourly by measuring LDH leakage with a Cobas Analyzer and intracellular [K^+ ]with a flame photometer. LDH was routinely measured in the medium while intracellular K^+ was measured in the 10% perchloric acid lysate of viable cells. Lipid peroxidation was determined by measuring TBA reactants in the medium. […] The samples were diluted with 0.3 ml 1% ascorbate in 0.1 M SDS, 0.4 ml ethanol, sonicated and extracted once with 0.8 ml hexane. Next, the hexane extract was evaporated to dryness with N2, the residue dissolved in 2.5% ascorbate in methanol (1 ml) and analyzed (100 μl) by high-performance liquid chromatograph (HPLC). […] The mobile phase, 95% MeOH was run isocratically and the HPLC retention times for delta and alpha-tocopherol were approximately eleven and sixteen minutes, respectively. […] Following the addition of 0.2 ml 4 M HC1, the neutralized KOH-MeOH extracted with 0.8 ml hexane. […] A standard curve for each tocopherol congener was run with every assay. […] Only viable cells were monitored in the laboratory procedures.
# The hepatocytes were subsequently exposed to 50mM EMS for three hours.
# skin lesion = assay: Topical treatment of dermal injury in a human; type: in vivo
# Description: In one case, the middle knuckle of the left hand of a person was injured by the removal of a small wart with liquid nitrogen. Two months following the liquid nitrogen insult, the injured area (approximately 1 cm in diameter) was characterized by scar tissue raised several millimeters above the surrounding normal skin. At this time, the lesion was treated by wetting the injured area with alpha-TS dissolved in dimethyl sulfoxide (100mg/ml), daily for a period of two weeks. […] One year following the last alpha-TS treatment, the once injured area remains indistinguishable from the surrounding normal tissue. In another case, a person's lip was severely sunburned. Topical lip cremes and antibiotic cremes were used for several weeks following the ultraviolet insult with minimal therapeutic benefit. At this time, the lesion was treated by wetting the injured area with alpha-TS dissolved in dimethyl sulfoxide (100mg/ml) daily for a period of 1 week. […] In another case, the arch of the left foot of a person was inflamed and blistered from contact dermatitis or stress dermatitis. Six months after unsuccessful treatment on this lesion with betamethasone, the injured area was treated by wetting the injured area with alpha-TS dissolved in dimethyl sulfoxide (100 mg/ml) twice daily for a period of 1 week. […] It is also evident from these cases that alpha-TS is the active component that promotes wound healing and prevents scar formation.
# rat hepatocytes [3] = assay: ATP content of rat hepatocyte suspensions; type: cell-based
# Source text: It is well known that the succinate molecule is utilized by the cell to produce ATP energy. In the tricarboxylic acid cycle, succinate is oxidized by succinate dehydrogenase to produce ATP. Oxidation occurs in the mitochondria and the mitochondria can utilize both succinate formed in the mitochondria or succinate transported to the mitochondria. Increasing ATP production may enhance cellular repair processes as well as normal metabolic processes. For example, the cell's ability to remove free intracellular Ca^2+ during a toxic insult is related to ATP production. Succinate administration stimulates gluconeogenesis to form glucose 6-phosphate which is used for producing energy anaerobically (ATP formation through glycolysis) and for producing reducing equivalents (NADPH formation through the hexose monophosphate shunt needed for lipid and nucleotide biosynthesis and other biosynthetic reductions and enzymatic reactions, e.g., glutathione reductase). An in vitro experiment was conducted to determine the relationship between the release of succinate from alpha-TS and the cellular ATP level. The experiment was performed by incubating a tocopherol analog in a rat hepatocyte suspension and measuring the ATP level at the beginning and end of the test.
# Rat hepatocyte suspensions were subjected to 50 mM EMS and the percentage of cell death, the percentage of intracellular K^+ (a metabolic parameter as discussed above), the depletion of ATP and the effect on lipid peroxidation were monitored.
# CDF1 mice = assay: Doxorubicin lethality in CDF1 mice (normal tissue); type: in vivo, mouse; conditions: 100 mg/kg ip 20 h prior, DOX 10, 15, 20, 25 mg/kg
# Description: The experiments were conducted in accordance with NCI Protocol 1,100. FIGS. 8a-d show the experimental results obtained when male CDF1 mice (n=6) received either vehicle only or 100mg/kg body weight i.p. dose of either alpha-TS or cholesteryl succinate 20 hours prior to DOX administration. FIGS. 8a-d respectively show the results obtained when the mice received 10, 15, 20, and 25 mg DOX/kg body weight. […] FIGS. 9a-d show the experimental results obtained when male CDF1 mice ([…]) were injected (i.p.) with 10^6 murine L1210 leukemia cells followed immediately by an injection of alpha-TS tris salt (100 mg/kg, i.p.) or saline injection (vehicle), and twenty hours later (Day=0) each mouse in three of the groups was i.p. injected with 15, 20, or 25 mg DOX/kg body weight ([…]). Survival was monitored for twenty days.
# liver = assay: Partial liver ischemia/reperfusion-induced injury in rats; type: in vivo, rat
# Description: 20 hours prior to global occlusion, one group of 10 rats was provided with 64 mg cholesterol/kg body weight and 100 mg tris succinate/kg body weight by i.p. injection, and another group of 10 rats was provided with 100 mg cholesteryl succinate/kg body weight. A control group of rats was only partially occluded for the one hour period. Ninety percent of the rats pretreated with cholesteryl succinate tris salt survived while only 10% of those pretreated with the combination of cholesterol and tris succinate survived. Table 22 of a partial ischemia study where male Sprague-Dawley rats were subjected to occlusion of the blood supply to the left lateral and median lobes of the liver for 60 minutes followed by reperfusion for 24 hours. During this time, the normal blood supply to the other lobes of the liver was maintained. […] Serum was obtained for AST and ALT measurements.
# ^a Partial liver ischemia was induced in male Sprague Dawley rats
# [4] = 50 mM EMS + 25 μM alpha-TS + 100 μM Bis-(p-nitrophenyl) phosphate
# [5] = 50 mM EMS + 25 μM alpha-TS + 100 μM Diethyl p-nitrophenyl phosphate
# [6] = 100 mg/kg ip, 20 hours prior to ischemia
compound,measurement,setting,value
"Cc1c(C)c2c(c(C)c1OC(=O)CCC(=O)O)CC[C@@](C)(CCC[C@H](C)CCC[C@H](C)CCCC(C)C)O2 [alpha-TS, d-alpha-tocopheryl succinate]",Lipid Peroxidation,"rat hepatocytes [1]; 5 Hrs, concentrations as cell death (Table 15)",0.9 nmolMDA/10^6 cells
same,inhibition at 25 µM,"rat hepatocytes [1]; Rattus norvegicus, Hepatocyte, 25 μM",100%
same,cellular alpha-TS content,rat hepatocytes [2]; 0.5 μM,approximately 0.025 nmoles/10^6 cells
same,Hepatocyte Concentration Alpha-T,rat hepatocytes [2]; 2.0 μM,0.4 ± 0.1 nmol/10^6 cells
same,Hepatocyte Concentration Alpha-TS,rat hepatocytes [2]; 2.0 μM,0.2 ± 0.1 nmol/10^6 cells
same,Hepatocyte Concentration Alpha-T,rat hepatocytes [2]; 10 μM,0.8 ± 0.1 nmol/10^6 cells
same,Hepatocyte Concentration Alpha-TS,rat hepatocytes [2]; 10 μM,0.7 ± 0.1 nmol/10^6 cells
same,cellular accumulation rate of alpha-TS,rat hepatocytes [2]; 25 μM dose,1.65 nmol/10^6 cells/hr
same,cellular release rate of succinate (as measured by alpha-tocopherol release),rat hepatocytes [2]; 25 μM dose,0.65 nmol/10^6 cells/hr
same,Hepatocyte Concentration Alpha-T,rat hepatocytes [2]; 25 μM,0.9 ± 0.1 nmol/10^6 cells
same,Hepatocyte Concentration Alpha-TS,rat hepatocytes [2]; 25 μM,2.5 ± 0.1 nmol/10^6 cells
same,Cellular Tocopherol ester,"rat hepatocytes [2]; 25 μM, Table 2",2.6 nmoles/10^6 cells
same,Cellular alpha-T,"rat hepatocytes [2]; 25 μM, Table 2",0.7 nmoles/10^6 cells
same,Hepatocyte Concentration Alpha-T,rat hepatocytes [2]; 250 μM,0.9 ± 0.1 nmol/10^6 cells
same,Hepatocyte Concentration Alpha-TS,rat hepatocytes [2]; 250 μM,7.6 ± 1.7 nmol/10^6 cells
same,Cellular alpha-T,rat hepatocytes [2]; 50 mM EMS + 25 μM alpha-TS,.81 ± .05 nmoles/10^6 cells
same,Cellular alpha-TS,rat hepatocytes [2]; 50 mM EMS + 25 μM alpha-TS,2.73 ± .67 nmoles/10^6 cells
same,Cellular alpha-T,rat hepatocytes [2]; [4],.20 ± .05 nmoles/10^6 cells
same,Cellular alpha-TS,rat hepatocytes [2]; [4],2.61 ± .61 nmoles/10^6 cells
same,Cellular alpha-T,rat hepatocytes [2]; [5],.19 ± .05 nmoles/10^6 cells
same,Cellular alpha-TS,rat hepatocytes [2]; [5],2.56 ± .24 nmoles/10^6 cells
same,Hepatocyte Concentration Alpha-T,rat hepatocytes [2]; .5 μM,0.2 ± 0.1 nmol/10^6 cells
same,healing of sunburned lip,"skin lesion; topical 100 mg/ml in DMSO daily, 1 week",rapid healing of the lip without scar formation
same,healing of injured area (liquid nitrogen),"skin lesion; topical 100 mg/ml in DMSO daily, two weeks",rapid healing of the injured area with the elimination of scar tissue
same,healing of foot lesion (dermatitis),"skin lesion; topical 100 mg/ml in DMSO twice daily, 1 week",rapid healing of the foot lesion with the dissolution of both inflammation and blisters
same,Rate of ATP Depletion,rat hepatocytes [3]; 25 μM,1.0 ± 0.1 nmoles/10^6 cell/hr
same,Cellular ATP,"rat hepatocytes [3]; 25 μM, 0 Hr",20.1 ± .5 nmoles/10^6 cells
same,Cellular ATP,"rat hepatocytes [3]; 25 μM, 6 Hr",14.2 ± 0.8 nmoles/10^6 cells
same,Rate of ATP Depletion,rat hepatocytes [3]; 250 μM,0.6 ± 0.3 nmoles/10^6 cell/hr
same,Cellular ATP,"rat hepatocytes [3]; 250 μM, 0 Hr",15.2 ± 1.6 nmoles/10^6 cells
same,Cellular ATP,"rat hepatocytes [3]; 250 μM, 6 Hr",11.7 ± 2.0 nmoles/10^6 cells
same,% Initial Intracellular [ATP],"rat hepatocytes [3]; 50 mM EMS, 5 Hrs, 25 μM (Table 15)",45 ± 2 % Initial
same,"survival after DOX, normal mice (FIGS. 8a-d)",CDF1 mice,survived significantly longer
CC(C)CCC[C@@H](C)[C@H]1CC[C@H]2[C@@H]3CC=C4C[C@@H](OC(=O)CCC(=O)O)CC[C@]4(C)[C@H]3CC[C@]12C [Cholesteryl Succinate tris salt],ALT,"liver; 25 mg/kg ip, vehicle 1027±235",358±38
same,ALT,liver; [6],554 ± 213 Units/L
same,AST,liver; [6],1800 ± 904 Units/L
same,ALT,"liver; 100 mg/kg ip, during ischemia",387 ± 155 Units/L
same,AST,"liver; 100 mg/kg ip, during ischemia",967 ± 68 Units/L
same,protection in fed and fasted rats,"liver; rat, in vivo",Protection was observed for both fed and fasted rats
